Four compounds from patent EP0958817A1, “COMPOSITION CONTAINING DIARYLALKANE DERIVATIVE AS THE ACTIVE INGREDIENT FOR TREATING OR PREVENTING PANCREATITIS” (SANKYO COMPANY LIMITED, priority 1996, dated 1998) can be followed below.

Assay [1] concerns pancreatitis induced by choline-deficient ethionine supplemented diet. Briefly: Inhibitory activity against pancreatitis induced by choline-deficient ethionine supplemented diet (CDE diet); serum amylase activity as index of pancreatitis. The class given is in vivo, ICR female mouse. The note with it: serum 64 h after start of CDE diet, twice a day, 6 times in total. Here is the method:
Pancreatitis of a mouse was induced by choline-deficient ethionine supplemented diet (CDE diet). A modified method of Lombardi et al [Lombardi et al, Am. J. Pathol., 79, 465-480 (1975)] was carried out. Briefly, the pancreatitis was induced by feeding an ICR female mouse (Charles River Japan, Inc. three-weeks old) choline deficient diet to which 0.5% (w/w) DL-ethionine was added (CDE diet). Sixty four hours after the feeding with the CDE diet, approximately 0.3 ml of the blood was collected from the heart of the mouse under anesthesia with ether. The collected blood was allowed to stand at room temperature for 2 hours to coagulate, followed by centrifugation (at 12,000 rpm for 10 minutes), to obtain serum. The amylase activity in the serum was measured by an amylase activity assay kit (Amylase B-Test Wako, product of Wako Pure Chemical Industries, Ltd.) and was designated as an index of pancreatitis. The test compound suspended in a 0.5% (w/v) tragacanth solution was administered to mice one hour before the feeding of the CDE diet and was administered twice a day, 6 times in total. The control group was fed with the CDE diet to induce pancreatitis but the test compounds were not administered to the control group. The normal group was not fed with the CDE diet but was fed with ordinary food.

Assay [2] relates to cerulein-induced pancreatitis. Briefly: Inhibitory activity against cerulein-induced pancreatitis; serum amylase activity as index of pancreatitis. Conditions: Table 6, serum 3 h after final cerulein (20 µg/kg i.p., four times), control group 48.7. The format is in vivo, Wistar rats. Here is the method:
Induction of experimental acute pancreatitis in rats was carried out by a modified method of Otsuki et al [Otsuki et al, Dig. Dis. Sci., 35, 242-250 (1990)]. Briefly, cerulein (20 µg/kg) was intraperitoneally administered to Wistar rats (Japan SLC, weight: about 200 g) every one hour, four times in total. Three hours after the final administration, the blood was collected from the jugular vein of the rat under anesthesia with ether. The collected blood was allowed to stand at room temperature for 2 hours to coagulate, followed by centrifugation (at 12,000 rpm for 10 minutes), to obtain serum. The amylase activity of the serum was measured using an amylase activity assay kit (Amylase B-Test Wako, product of Wako Pure Chemical Industries, Ltd.) and was designated as an index of pancreatitis. The test compound suspended in a 0.5% (w/v) tragacanth solution was orally administered 30 minutes before the first injection of the cerulein. The control group is defined as a group in which pancreatitis was induced, but to which the test compounds were not administered.

Setting [3] is: Table 4, dose 10 mg/kg, control group 64.7, normal group 6.6.
The mark [4] stands for this setting: Table 4, dose 30 mg/kg, control group 64.7, normal group 6.6.

Structures are written as SMILES. Counter-ions that a name gives are not always drawn.

For the compound `COc1cc(CCc2cc(F)ccc2OCC[C@@H]2C[C@@H](O)CN2C)ccc1F` [Preparation Example 2, (2R,4R)-2-[2-[4-Fluoro-2-[2-(4-fluoro-3-methoxypheny)ethyl]phenoxy]ethyl]-4-hydroxy-1-methylpyrrolidine hydrochloride], the Amylase activity in assay [1] (setting [3]) was found to be 53.7 IU/ml; in assay [1] (setting [4]) it was 31.2 IU/ml.
With `CCCCCCCCCCCC(=O)O[C@@H]1C[C@@H](CCOc2ccccc2CCc2cccc(OC)c2)N(C)C1.Cl` [Preparation Example 3, (2R,4R)-4-Lauroyloxy-2-[2-[2-[2-(3-methoxyphenyl)ethyl]phenoxy]ethyl]-1-methylpyrrolidine hydrochloride], the Amylase activity in assay [2] (dose 10 mg/kg orally 30 minutes before first cerulein) came out at 43.6 IU/ml; in assay [2] (dose 30 mg/kg orally 30 minutes before first cerulein), 34.9 IU/ml; in assay [2] (dose 100 mg/kg orally 30 minutes before first cerulein) it was 31.7 IU/ml; in assay [1] (Table 3, dose 10 mg/kg, control group 71.7, normal group 7.4), 35.0 IU/ml; in assay [1] (Table 3, dose 30 mg/kg, control group 71.7, normal group 7.4), 32.1 IU/ml.
Regarding `COc1cc(CCc2ccccc2OCC[C@@H]2C[C@@H](O)CN2C)ccc1F.Cl` [Preparation Example 4, (2R,4R)-2-[2-[2-[2-(4-Fluoro-3-methoxyphenyl)ethyl]phenoxy]ethyl]-4-hydroxy-1-methylpyrrolidine hydrochloride], the values for the Amylase activity in assay [1] (setting [3]) and in assay [1] (setting [4]) were 48.4 IU/ml and 30.5 IU/ml, respectively.
`COc1cccc(CCc2ccccc2OCC[C@@H]2C[C@@H](O)CN2C)c1.Cl` [Preparation Example 18, (2R,4R)-4-Hydroxy-2-[2-[2-[2-(3-methoxyphenyl)ethyl]phenoxy]ethyl]-1-methylpyrrolidine hydrochloride]: the Amylase activity in assay [1] (Table 5, dose 10 mg/kg, control group 48.0, normal group 8.7) was 25.7 IU/ml; in assay [1] (Table 5, dose 30 mg/kg, control group 48.0, normal group 8.7), 21.8 IU/ml.
